# Data taken from ChEMBL document CHEMBL1641408, “Two dimeric lignans with an unusual α,β-unsaturated ketone motif from Zanthoxylum podocarpum and their inhibitory effects on nitric oxide production” (Bioorg Med Chem Lett, 2011).
# System: RAW264.7
# Experiment: Antiinflammatory activity in mouse RAW264.7 cells assessed as inhibition of LPS-induced nitric oxide production after 18 hrs by Griess reagent method
# Assay type: functional, cell-based
# Details: RAW264.7, 18 h
smiles,measurement,value
COc1cc([C@@H]2OC[C@@H]3[C@H]2CO[C@@H]3c2ccc(OC34OCOC3=CC(=O)[C@@H]([C@@H]3OC[C@H]5[C@@H]3CO[C@H]5c3ccc(OC)c(OC)c3)[C@@H]4O)c(OC)c2)ccc1O (some centres not stated) [ZANTHPODOCARPIN B],IC50,12.2 µM
COc1ccc([C@@H]2OC[C@@H]3[C@H]2CO[C@H]3[C@@H]2C(=O)C=C3OCOC3(Oc3ccc([C@H]4OC[C@@H]5[C@H]4CO[C@H]5c4ccc5c(c4)OCO5)cc3OC)[C@H]2O)cc1OC (some centres not stated) [ZANTHPODOCARPINS A],IC50,5.31 µM
